Data reported in patent US12030867B2, “Hsp90β selective inhibitors” (University of Notre Dame du Lac, priority 2018, dated 2024).
Like-named read-outs stand apart in the source and are kept apart here.

What was measured:
[1] = molecular target: T1, Hsp90β (Homo sapiens (Human), UniProt P08238); test: fluorescence polarization (FP) assay, competitive displacement of FITC labeled Geldanamycin; type: binding
Experimental: (§1) Once prepared, the compounds were evaluated for their binding affinities against the cytosolic isoforms, Hsp90α and Hsp90β by measuring their ability to competitively displace FITC labeled Geldanamycin (GDA) in a fluorescence polarization assay (apparent Kd's listed in Table 1). […] The alkyne (4k) was investigated to determine whether a linear substituent could project into the subpocket and affect selectivity.

[2] = molecular target: Hsp90α (Homo sapiens (Human), UniProt P07900); test: as above; type: binding
Experimental: as §1

[3] = molecular target: T1, Hsp90β; details: previously reported inhibitors; cited from earlier work
[4] = tested on: prostate cancer cells; test: cells; details: read-out: efficacy against prostate cancer cells
[5] = molecular target: Trap-1 (Homo sapiens (Human), UniProt Q12931); test: binding affinity towards Trap-1
[6] = tested on: UM-UC-3 bladder cancer cells; test: cells; details: Homo sapiens, UMUC3
[7] = tested on: PC3-MM2 prostate cancer cells; test: cells; details: Homo sapiens, PC3MM2
[8] = tested on: Hsp90 client proteins in UM-UC-3 cells; test: western blot analysis of client proteins in UM-UC-3 cells; type: cell-based; details: 24-hour incubation
Experimental: Since Hsp90 inhibition induces the degradation of Hsp90-dependent substrates via the ubiquitin-proteosome pathway, the levels of both kinase and non-kinase Hsp90 clients were assessed via western blot analysis. […]. […] […]. Survivin, which is an Hsp90α dependent substrate was not affected, providing direct evidence for isoform-selective inhibition in a cellular context.

[9] = molecular target: Grp94 (Homo sapiens (Human), UniProt P14625); test: binding affinity towards Grp94
[10] = tested on: other colon cancer cells; test: cells
[11] = tested on: HT29 cells; test: cells; details: Homo sapiens, HT-29
[12] = tested on: C4-2b prostate cancer cells; test: cells
[13] = tested on: LNCap-LN3 prostate cancer cells; test: cells
[14] = tested on: LAPC4 prostate cancer cells; test: cells; details: Homo sapiens
[15] = tested on: T24 bladder cancer cells; test: tissue or blood
[16] = apparent Kd, FP assay, read-out: Hsp90β Kd
[17] = apparent Kd, FP assay, read-out: Hsp90α Kd

T1 sequence (P08238 whole entry, canonical isoform): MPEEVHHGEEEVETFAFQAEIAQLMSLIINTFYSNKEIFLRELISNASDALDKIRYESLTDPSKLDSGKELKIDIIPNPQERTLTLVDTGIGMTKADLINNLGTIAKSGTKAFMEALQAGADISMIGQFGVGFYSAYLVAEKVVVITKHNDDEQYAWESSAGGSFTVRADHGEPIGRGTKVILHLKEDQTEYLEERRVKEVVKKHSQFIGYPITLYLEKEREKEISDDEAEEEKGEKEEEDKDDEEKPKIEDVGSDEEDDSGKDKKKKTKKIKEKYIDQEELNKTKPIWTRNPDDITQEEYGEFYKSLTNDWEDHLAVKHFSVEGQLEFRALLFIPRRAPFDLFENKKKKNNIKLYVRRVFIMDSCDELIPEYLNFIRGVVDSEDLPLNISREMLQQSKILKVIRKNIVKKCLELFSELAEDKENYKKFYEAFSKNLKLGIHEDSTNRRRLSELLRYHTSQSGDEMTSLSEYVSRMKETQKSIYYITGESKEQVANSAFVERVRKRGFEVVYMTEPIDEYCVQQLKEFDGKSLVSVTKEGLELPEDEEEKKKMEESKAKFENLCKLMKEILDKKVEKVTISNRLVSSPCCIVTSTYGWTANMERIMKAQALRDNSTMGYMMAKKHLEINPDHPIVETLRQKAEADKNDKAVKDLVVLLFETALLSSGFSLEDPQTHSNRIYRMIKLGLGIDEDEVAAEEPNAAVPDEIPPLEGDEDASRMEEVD
Chain of Trap-1 (Q12931 60-704): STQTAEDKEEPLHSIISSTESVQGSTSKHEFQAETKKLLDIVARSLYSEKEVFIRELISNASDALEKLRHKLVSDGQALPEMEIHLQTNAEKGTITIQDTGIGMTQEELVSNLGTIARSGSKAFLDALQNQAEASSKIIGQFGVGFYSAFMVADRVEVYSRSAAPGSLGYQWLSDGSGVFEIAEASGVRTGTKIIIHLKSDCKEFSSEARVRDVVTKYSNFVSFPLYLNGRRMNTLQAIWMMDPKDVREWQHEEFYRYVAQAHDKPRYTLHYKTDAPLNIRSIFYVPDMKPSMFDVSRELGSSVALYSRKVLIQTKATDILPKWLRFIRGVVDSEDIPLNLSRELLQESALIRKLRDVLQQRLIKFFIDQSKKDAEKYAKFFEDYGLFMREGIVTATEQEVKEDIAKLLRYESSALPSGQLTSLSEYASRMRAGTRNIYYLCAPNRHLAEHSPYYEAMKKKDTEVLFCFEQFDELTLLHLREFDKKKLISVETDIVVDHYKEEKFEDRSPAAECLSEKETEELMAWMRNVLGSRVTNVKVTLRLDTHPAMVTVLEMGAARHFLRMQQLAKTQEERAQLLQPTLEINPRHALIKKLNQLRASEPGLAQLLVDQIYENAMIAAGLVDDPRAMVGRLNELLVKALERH
Chain of Grp94 (P14625 22-803, species assumed): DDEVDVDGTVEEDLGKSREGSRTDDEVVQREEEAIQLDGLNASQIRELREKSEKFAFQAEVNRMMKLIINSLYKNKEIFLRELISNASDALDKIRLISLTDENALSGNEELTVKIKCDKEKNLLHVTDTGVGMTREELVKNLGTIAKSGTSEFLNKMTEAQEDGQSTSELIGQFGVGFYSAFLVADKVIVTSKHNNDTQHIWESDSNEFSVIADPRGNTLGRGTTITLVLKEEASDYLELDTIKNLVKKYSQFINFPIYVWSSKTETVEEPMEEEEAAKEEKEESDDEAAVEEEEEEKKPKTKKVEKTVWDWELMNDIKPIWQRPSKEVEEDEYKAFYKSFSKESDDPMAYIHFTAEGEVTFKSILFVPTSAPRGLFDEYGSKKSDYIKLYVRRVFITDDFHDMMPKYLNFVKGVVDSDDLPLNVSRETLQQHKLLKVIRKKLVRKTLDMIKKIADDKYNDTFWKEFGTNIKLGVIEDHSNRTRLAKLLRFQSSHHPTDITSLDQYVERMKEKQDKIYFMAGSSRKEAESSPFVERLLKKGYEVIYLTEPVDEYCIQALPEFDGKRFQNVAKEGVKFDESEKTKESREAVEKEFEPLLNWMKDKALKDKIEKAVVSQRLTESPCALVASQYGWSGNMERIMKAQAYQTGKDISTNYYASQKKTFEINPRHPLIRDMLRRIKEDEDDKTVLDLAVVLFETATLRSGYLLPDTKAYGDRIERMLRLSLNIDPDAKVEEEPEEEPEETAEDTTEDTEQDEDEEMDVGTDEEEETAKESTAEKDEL

| Structure (SMILES) | Kd [1, 16] | Kd [2, 17] | selectivity for Hsp90β over Hsp90α (in words) ([1]; FP assay) | also measured |
| --- | --- | --- | --- | --- |
| Cc1cc2cc(-n3nc(C)c4c3CC(C)(C)CC4=O)cc(N[C@H]3CC[C@H](O)CC3)c2c(=O)[nH]1 [Compound 4a, 8-(((1r,4r)-4-hydroxycyclohexyl)amino)-3-methyl-6-(3,6,6-trimethyl-4-oxo-4,5,6,7-tetrahydro-1H-indazol-1-yl)isoquinolin-1(2H)-one] | 101 ± 3 nM | 294 ± 23 nM |  | selectivity for Hsp90β over Hsp90α [1]: 3 fold |
| CCCc1cc2cc(-n3nc(C)c4c3CC(C)(C)CC4=O)cc(N(C)CCN(CC)CC)c2c(=O)[nH]1 [Compound 5g, 8-((2-(diethylamino)ethyl)(methyl)amino)-3-propyl-6-(3,6,6-trimethyl-4-oxo-4,5,6,7-tetrahydro-1H-indazol-1-yl)isoquinolin-1(2H)-one] | 4460 ± 188 nM | > 50000 nM |  |  |
| CCCCc1cc2cc(-n3nc(C)c4c3CC(C)(C)CC4=O)cc(N[C@H]3CC[C@H](O)CC3)c2c(=O)[nH]1 [Compound 4e, 3-butyl-8-(((1r,4r)-4-hydroxycyclohexyl)amino)-6-(3,6,6-trimethyl-4-oxo-4,5,6,7-tetrahydro-1H-indazol-1-yl)isoquinolin-1(2H)-one] | 156 ± 18 nM | > 50000 nM |  | Kd [1]: 186 nM; selectivity for Hsp90β over Hsp90α [1]: > 300 fold; affinity for Hsp90β (in words) ([1]; FP assay): did not bind; binding to Hsp90α (in words) ([2]; FP assay): did not bind |
| CCCc1cc2cc(-n3nc(C)c4c3CC(C)(C)CC4=O)cc(N3CCN(C(=O)OC(C)(C)C)CC3)c2c(=O)[nH]1 [Compound 5e, tert-butyl 4-(1-oxo-3-propyl-6-(3,6,6-trimethyl-4-oxo-4,5,6,7-tetrahydro-1H-indazol-1-yl)-1,2-dihydroisoquinolin-8-yl)piperazine-1-carboxylate] |  |  |  | Kd [1]: 463 ± 31 nM; Kd [2]: > 50000 nM |
| Cc1nn(-c2cc(N[C@H]3CC[C@H](O)CC3)c3c(=O)[nH]c(CC(C)C)cc3c2)c2c1C(=O)CC(C)(C)C2 [Compound 4g, 8-(((1r,4r)-4-hydroxycyclohexyl)amino)-3-isobutyl-6-(3,6,6-trimethyl-4-oxo-4,5,6,7-tetrahydro-1H-indazol-1-yl)isoquinolin-1(2H)-one] | 264 ± 30 nM | > 50000 nM | maintained selectivity | affinity for Hsp90β (in words) ([1]; FP assay): decrease in affinity |
| CCCc1cc2cc(-n3nc(C)c4c3CC(C)(C)CC4=O)cc(N3CCOCC3)c2c(=O)[nH]1 [Compound 5a, 8-morpholino-3-propyl-6-(3,6,6-trimethyl-4-oxo-4,5,6,7-tetrahydro-1H-indazol-1-yl)isoquinolin-1(2H)-one] | 121 ± 17 nM | > 50000 nM | excellent selectivity | Kd ([1]; read-out: Kd for Hsp90β): ~121 nM |
| CCCC1Cc2cc(-n3nc(C)c4c3CC(C)(C)CC4=O)cc(N3CCC(O)CC3)c2C(=O)N1 (centres unmarked) [Compound 6b, 8-(4-hydroxypiperidin-1-yl)-3-propyl-6-(3,6,6-trimethyl-4-oxo-4,5,6,7-tetrahydro-1Hindazol-1-yl)-3,4-dihydroisoquinolin-1(2H)-one] |  |  | lost both selectivity and affinity | affinity for Hsp90β (in words) ([1]; FP assay): lost both selectivity and affinity |
| Cc1nn(-c2cc(N[C@H]3CC[C@H](O)CC3)c3c(=O)[nH]c(CO)cc3c2)c2c1C(=O)CC(C)(C)C2 [Compound 4j, 8-(((1r,4r)-4-hydroxycyclohexyl)amino)-3-(hydroxymethyl)-6-(3,6,6-trimethyl-4-oxo-4,5,6,7-tetrahydro-1H-indazol-1-yl)isoquinolin-1(2H)-one] | 233 ± 18 nM | 824 ± 104 nM | loss of selectivity |  |
| CCCc1cc2cc(-n3nc(C)c4c3CC(C)(C)CC4=O)cc(N3CCNCC3)c2c(=O)[nH]1 [Compound 5d, 8-(piperazin-1-yl)-3-propyl-6-(3,6,6-trimethyl-4-oxo-4,5,6,7-tetrahydro-1H-indazol-1-yl)isoquinolin-1(2H)-one] | 4470 ± 278 nM | > 50000 nM |  |  |
| CC1(C)CC(=O)c2c(C(F)(F)F)nn(-c3ccc(C(N)=O)c(N[C@H]4CC[C@H](O)CC4)c3)c2C1 [SNX 2112] |  |  |  | Hsp90α/Hsp90β isoform profile (in words) [3]: equipotent affinity |
| COCc1cc2cc(-n3nc(C)c4c3CC(C)(C)CC4=O)cc(N[C@H]3CC[C@H](O)CC3)c2c(=O)[nH]1 [Compound 4i, 8-(((1r,4r)-4-hydroxycyclohexyl)amino)-3-(methoxymethyl)-6-(3,6,6-trimethyl-4-oxo-4,5,6,7-tetrahydro-1H-indazol-1-yl)isoquinolin-1(2H)-one] | 159 ± 3 nM | 306 ± 23 nM | loss of selectivity |  |
| CCCc1cc2cc(-n3nc(C)c4c3CC(C)(C)CC4=O)cc(N[C@H]3CC[C@H](O)CC3)c2c(=O)[nH]1 [Compound 4d, 8-(((1r,4r)-4-hydroxycyclohexyl)amino)-3-propyl-6-(3,6,6-trimethyl-4-oxo-4,5,6,7-tetrahydro-1H-indazol-1-yl)isoquinolin-1(2H)-one] |  |  |  | IC50 [4]: 1000 to 2500 nM; Kd [5]: > 5000 nM; GI50 [6]: 508 nM; GI50 [7]: 1240 nM; CXCR4 and B-raf levels (Hsp90β-dependent clients) [8]: marked dose-dependent reduction; FGFR3 level [8]: marked dose-dependent reduction; Hsp27 and Hsf-1 levels (heat shock related proteins) [8]: declined upon increasing doses; Survivin level (Hsp90α dependent substrate) [8]: not affected; Kd [9]: > 5000 nM; GI50 [10]: 50 to 80 nM; GI50 [11]: 26 nM; GI50 [12]: 1030 nM; GI50 [13]: 1180 nM; GI50 [14]: 2560 nM; GI50 [15]: 197 nM |
| CCCc1cc2cc(-n3nc(C)c4c3CC(C)(C)CC4=O)cc(N3CCN(C)CC3)c2c(=O)[nH]1 [Compound 5c, 8-(4-methylpiperazin-1-yl)-3-propyl-6-(3,6,6-trimethyl-4-oxo-4,5,6,7-tetrahydro-1Hindazol-1-yl)isoquinolin-1(2H)-one] | 426 ± 53 nM | 8520 ± 240 nM | decrease in affinity and selectivity | affinity for Hsp90β (in words) ([1]; FP assay): decrease in affinity |
| Cc1nn(-c2cc(N[C@H]3CC[C@H](O)CC3)c3c(=O)[nH]c(C4CC4)cc3c2)c2c1C(=O)CC(C)(C)C2 [Compound 4h, 3-cyclopropyl-8-(((1r,4r)-4-hydroxycyclohexyl)amino)-6-(3,6,6-trimethyl-4-oxo-4,5,6,7-tetrahydro-1H-indazol-1-yl)isoquinolin-1(2H)-one] | 946 ± 38 nM | 1880 ± 280 nM |  | affinity for Hsp90β (in words) ([1]; FP assay): loss of potency |
| Cc1nn(-c2cc(N[C@H]3CC[C@H](O)CC3)c3c(=O)[nH]c(C(C)C)cc3c2)c2c1C(=O)CC(C)(C)C2 [Compound 4c, 8-(((1r,4r)-4-hydroxycyclohexyl)amino)-3-isopropyl-6-(3,6,6-trimethyl-4-oxo-4,5,6,7-tetrahydro-1H-indazol-1-yl)isoquinolin-1(2H)-one] | 51 ± 8 nM | 173 ± 36 nM |  |  |
| CCc1cc2cc(-n3nc(C)c4c3CC(C)(C)CC4=O)cc(N[C@H]3CC[C@H](O)CC3)c2c(=O)[nH]1 [Compound 4b, 3-ethyl-8-(((1r,4r)-4-hydroxycyclohexyl)amino)-6-(3,6,6-trimethyl-4-oxo-4,5,6,7-tetrahydro-1H-indazol-1-yl)isoquinolin-1(2H)-one] | 68 ± 8 nM | 180 ± 36 nM |  |  |
| CCCc1cc2cc(-n3nc(C)c4c3CC(C)(C)CC4=O)cc(NC3CCN(C)CC3)c2c(=O)[nH]1 [Compound 5f, 8-((1-methylpiperidin-4-yl)amino)-3-propyl-6-(3,6,6-trimethyl-4-oxo-4,5,6,7-tetrahydro-1Hindazol-1-yl)isoquinolin-1(2H)-one] | 513 ± 67 nM | 17100 ± 660 nM |  |  |
| C#Cc1cc2cc(-n3nc(C)c4c3CC(C)(C)CC4=O)cc(N[C@H]3CC[C@H](O)CC3)c2c(=O)[nH]1 [Compound 4k, 3-ethynyl-8-(((1r,4r)-4-hydroxycyclohexyl)amino)-6-(3,6,6-trimethyl-4-oxo-4,5,6,7-tetrahydro-1H-indazol-1-yl)isoquinolin-1(2H)-one] | 337 ± 15 nM | 381 ± 3 nM | without discrimination |  |
| Cc1nn(-c2cc(N[C@H]3CC[C@H](O)CC3)c3c(=O)[nH]c(C(C)(C)C)cc3c2)c2c1C(=O)CC(C)(C)C2 [Compound 4f, 3-(tert-butyl)-8-(((1r,4r)-4-hydroxycyclohexyl)amino)-6-(3,6,6-trimethyl-4-oxo-4,5,6,7-tetrahydro-1H-indazol-1-yl)isoquinolin-1(2H)-one] | > 50000 nM | > 50000 nM |  |  |
